Assay results from publication PMC5247395 (EJNMMI Research, 2017).

Tests used:
[1] = target: T1, PSMA (Homo sapiens, UniProt Q04609); assay: Saturation binding assay on PC-3 PIP cells (PSMA affinity, KD); conditions: for Kd: 30 min at 4 °C, saturation binding; for Relative PSMA-binding affinity: inverse molar ratio of average KD values, ^177Lu-PSMA-617 set to 1
T1 construct: expressed in transfected cells; host or cells: PC-3 PIP cells (PSMA-positive subline of human PC-3 prostate cancer cells), provided by Prof; Martin Pomper, Johns Hopkins
T1 sequence (Q04609 whole entry): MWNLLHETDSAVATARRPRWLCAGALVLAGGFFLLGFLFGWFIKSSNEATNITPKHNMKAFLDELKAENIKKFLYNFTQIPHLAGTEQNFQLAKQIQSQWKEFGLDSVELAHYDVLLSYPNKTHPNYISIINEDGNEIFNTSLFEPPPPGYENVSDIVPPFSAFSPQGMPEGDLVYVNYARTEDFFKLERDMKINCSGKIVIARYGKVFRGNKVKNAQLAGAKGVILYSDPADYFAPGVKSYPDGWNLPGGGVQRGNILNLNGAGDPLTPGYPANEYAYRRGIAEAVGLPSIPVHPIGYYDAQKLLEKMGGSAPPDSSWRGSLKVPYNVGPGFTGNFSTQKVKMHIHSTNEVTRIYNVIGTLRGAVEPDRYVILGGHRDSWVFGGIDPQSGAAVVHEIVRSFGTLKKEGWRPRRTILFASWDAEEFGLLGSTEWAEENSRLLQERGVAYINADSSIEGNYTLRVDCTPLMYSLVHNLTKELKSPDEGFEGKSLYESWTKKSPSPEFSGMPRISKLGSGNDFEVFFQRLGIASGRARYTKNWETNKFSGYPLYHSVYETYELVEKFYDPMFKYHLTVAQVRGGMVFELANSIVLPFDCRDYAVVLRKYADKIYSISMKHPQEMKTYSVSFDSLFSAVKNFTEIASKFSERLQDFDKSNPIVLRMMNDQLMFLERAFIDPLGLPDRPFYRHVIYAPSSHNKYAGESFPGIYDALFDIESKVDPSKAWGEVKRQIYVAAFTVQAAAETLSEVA
Description: Determination of the PSMA affinity was performed by saturation binding assays using PC-3 PIP cells and different concentrations of ^nat/44Sc-, ^nat/177Lu-, ^nat/68Ga-PSMA-617, or ^nat/68Ga-PSMA-11, respectively (Additional file 1).
Determination of the KD values was performed by saturation binding assays using PSMA^pos PC-3 PIP cells. After successful radiolabeling of the PSMA ligands, a 2.5-fold molar excess of the corresponding cold metal was added and the reaction mixture was incubated for another 10 min at 95 °C. Quality control was performed again after reaction of the radioligands with the “cold” metal as described in the main manuscript.
The cells were seeded in 48-well-plates (8 x 10^5 cells in 500 uL RPMI medium/well) allowing adhesion and growth overnight at 37 °C and 5% CO2. For the entire experiment, the well-plates were kept on ice. After removal of the supernatant, the cells were washed once with ice-cold PBS pH 7.4 prior to the addition of different concentrations (1 nM-2 µM) of either ^nat/44Sc-, ^nat/177Lu-, ^nat/67/68Ga-PSMA-617 or ^nat/67/68Ga-PSMA-11 in ice-cold RPMI medium without supplements. For the determination of non-specific binding, cell samples were incubated with 2-phosphonomethyl pentanedioic acid (2-PMPA, 200 μM). The well-plates were incubated for 30 min at 4 °C. Then, the supernatants were removed and the cells washed twice with ice-cold PBS followed by addition of NaOH (1 M, 600 µL) to each well. The cell suspensions were transferred to 4 mL tubes for measurement in a γ-counter (Wallac Wizard 1480, Perkin Elmer). The KD values were determined by plotting specific-binding (total binding minus unspecific binding) against the molar concentration of the added radioligands followed by nonlinear regression analysis using GraphPad Prism 7 software.

[2] = system: PC-3 PIP/flu tumor-bearing mice; assay: PET/CT and SPECT/CT imaging of PC-3 PIP/flu tumor-bearing mice; type: in vivo; conditions: 2 h after injection
Description: PET/CT scans were performed using a small-animal bench-top PET/CT scanner (G8, Sofie Biosciences, Culver City, California, USA, and Perkin Elmer, Massachusetts, USA) and a small-animal SPECT/CT scanner (NanoSPECT/CT^TM, Mediso Medical Imaging Systems, Budapest, Hungary), respectively (Additional file 1). During the scans, the mice were anesthetized with a mixture of isoflurane and oxygen.
The PET scans were followed by a CT of 1.5 min. The SPECT scan of 45 min duration was performed 2 h after injection of ^177Lu-PSMA-617 (~50 MBq, 1 nmol) followed by a CT of 7.5 min. Reconstruction of the acquired data was performed by using the software of the respective scanner.
All images were prepared using VivoQuant post-processing software (version 2.10, inviCRO Imaging Services and Software, Boston USA). A Gauss post-reconstruction filter (full width at half maximum = 1 mm) was applied to the images, which were presented with the scale adjusted to allow visualization of the most important organs and tissues, usually by cutting 0.5–1% of the lower scale.
PET/CT scans were performed with a small-animal bench-top PET/CT scanner (G8, Sofie Biosciences, Culver City, California, U.S. and Perkin Elmer, Massachusetts, U.S.). The energy window ranged from 150 keV to 650 keV. […]

[3] = system: PC-3 PIP/flu tumor-bearing mice; assay: Biodistribution in PC-3 PIP/flu tumor-bearing mice; conditions: i.v.; for PC-3 flu Tumor: PSMA^neg xenograft; for PC-3 PIP Tumor: PSMA^pos xenograft
Description: In vivo experiments were approved by the local veterinarian department and conducted in accordance with the Swiss law of animal protection. All mice were obtained from Charles River Laboratories (Sulzfeld, Germany), at the age of 5–6 weeks. Female, athymic nude Balb/c mice were subcutaneously inoculated with PC-3 PIP cells (6 × 10^6 cells in 100 μL Hank’s balanced salt solution (HBSS) with Ca^2+/Mg^2+) on the right shoulder and with PC-3 flu cells (5 × 10^6 cells in 100 μL HBSS with Ca^2+/Mg^2+) on the left shoulder 2 weeks before the performance of the experiments.
Mice were sacrificed at different time points post injection (p.i.) of the radioligands. Selected tissues and organs were collected, weighed and measured using a γ-counter. The results were decay-corrected and listed as a percentage of the injected activity per gram of tissue mass (% IA/g).

[4] = n-octanol/PBS distribution coefficient (shake-flask); type: physicochemical; conditions: n-octanol/PBS pH 7.4, shake-flask
Description: The distribution coefficients (logD values) of the radioligands were determined by a shake-flask method using liquid-liquid extraction followed by phase separation, as previously reported (Additional file 1). In brief, the PSMA ligands were labeled at a specific activity of 5 MBq/nmol. […] The vials were vortexed vigorously for 1 min and then centrifuged for 6 min for phase separation. The concentration of radioactivity in a defined volume of each layer was measured in a γ-counter (Perkin Elmer, Wallac Wizard 1480). The distribution coefficients were expressed as the logarithm of the ratio of counts per minute (cpm) measured in the n-octanol phase to the cpm measure in the PBS phase. The values are reported as the average of at least three independent measurements (± standard deviation, SD), each performed with five replicates. Data were analyzed for significance using a one-way ANOVA test (GraphPad Prism software, version 7). A p value of <0.05 was considered as statistically significant.

O=C([O-])CN(CCN(CC(=O)[O-])Cc1cc(CCC(=O)NCCCCCC(=O)NCCCC[C@H](NC(=O)N[C@@H](CCC(=O)O)C(=O)O)C(=O)O)ccc1[O-])Cc1cc(CCC(=O)O)ccc1[O-].[68Ga+3] [^68Ga-PSMA-11]
Kd [1]: 87 ± 27 nM | Relative PSMA-binding affinity [1]: 0.4 | accumulation in the kidneys on PET/CT images vs. the other radioligands [2]: significantly higher extent | Blood ([3]; 15 min p.i.): 5.05 ± 0.58 % IA/g | Bone ([3]; 15 min p.i.): 1.85 ± 0.20 % IA/g | Heart ([3]; 15 min p.i.): 2.45 ± 0.29 % IA/g | Intestines ([3]; 15 min p.i.): 1.42 ± 0.07 % IA/g | Kidneys ([3]; 15 min p.i.): 74.7 ± 7.02 % IA/g | Liver ([3]; 15 min p.i.): 2.00 ± 0.32 % IA/g | Lung ([3]; 15 min p.i.): 3.87 ± 0.22 % IA/g | Muscle ([3]; 15 min p.i.): 1.21 ± 0.11 % IA/g | Salivary glands ([3]; 15 min p.i.): 2.73 ± 0.27 % IA/g | Spleen ([3]; 15 min p.i.): 5.33 ± 1.78 % IA/g | Stomach ([3]; 15 min p.i.): 1.42 ± 0.15 % IA/g | PC-3 flu Tumor ([3]; 15 min p.i.): 2.19 ± 0.05 % IA/g | PC-3 PIP Tumor ([3]; 15 min p.i.): 31.5 ± 13.0 % IA/g | Blood ([3]; 30 min p.i.): 2.55 ± 0.72 % IA/g | Bone ([3]; 30 min p.i.): 0.81 ± 0.14 % IA/g | Heart ([3]; 30 min p.i.): 1.31 ± 0.19 % IA/g | Intestines ([3]; 30 min p.i.): 1.20 ± 0.24 % IA/g | Kidneys ([3]; 30 min p.i.): 86.7 ± 14.6 % IA/g | Liver ([3]; 30 min p.i.): 1.55 ± 0.04 % IA/g | Lung ([3]; 30 min p.i.): 2.23 ± 0.33 % IA/g | Muscle ([3]; 30 min p.i.): 0.67 ± 0.06 % IA/g | Salivary glands ([3]; 30 min p.i.): 1.59 ± 0.18 % IA/g | Spleen ([3]; 30 min p.i.): 4.76 ± 1.13 % IA/g | Stomach ([3]; 30 min p.i.): 0.85 ± 0.19 % IA/g | PC-3 flu Tumor ([3]; 30 min p.i.): 1.04 ± 0.17 % IA/g | PC-3 PIP Tumor ([3]; 30 min p.i.): 49.3 ± 4.97 % IA/g | Blood ([3]; 2 h p.i.): 0.08 ± 0.01 % IA/g | Bone ([3]; 2 h p.i.): 0.06 ± 0.00 % IA/g | Heart ([3]; 2 h p.i.): 0.18 ± 0.03 % IA/g | Intestines ([3]; 2 h p.i.): 0.95 ± 0.86 % IA/g | Kidneys ([3]; 2 h p.i.): 58.8 ± 7.62 % IA/g | Liver ([3]; 2 h p.i.): 0.56 ± 0.04 % IA/g | Lung ([3]; 2 h p.i.): 0.31 ± 0.10 % IA/g | Muscle ([3]; 2 h p.i.): 0.06 ± 0.01 % IA/g | Salivary glands ([3]; 2 h p.i.): 0.39 ± 0.01 % IA/g | Spleen ([3]; 2 h p.i.): 2.18 ± 0.38 % IA/g | Stomach ([3]; 2 h p.i.): 0.35 ± 0.17 % IA/g | PC-3 flu Tumor ([3]; 2 h p.i.): 0.13 ± 0.02 % IA/g | PC-3 PIP Tumor ([3]; 2 h p.i.): 40.0 ± 2.55 % IA/g | LogD values [4]: −4.82 ± 0.07

O=C([O-])CN1CCN(CC(=O)[O-])CCN(CC(=O)NCC2CCC(C(=O)N[C@@H](Cc3ccc4ccccc4c3)C(=O)NCCCC[C@H](NC(=O)N[C@@H](CCC(=O)O)C(=O)O)C(=O)O)CC2)CCN(CC(=O)[O-])CC1.[177Lu+3] (stereo partly drawn) [^177Lu-PSMA-617]
Kd [1]: 39 ± 23 nM | Relative PSMA-binding affinity [1]: 1.0 | Blood ([3]; 15 min p.i.): 7.28 ± 0.32 % IA/g | Bone ([3]; 15 min p.i.): 2.03 ± 0.10 % IA/g | Heart ([3]; 15 min p.i.): 2.87 ± 0.17 % IA/g | Intestines ([3]; 15 min p.i.): 1.64 ± 0.12 % IA/g | Kidneys ([3]; 15 min p.i.): 30.8 ± 4.52 % IA/g | Liver ([3]; 15 min p.i.): 1.63 ± 0.27 % IA/g | Lung ([3]; 15 min p.i.): 4.76 ± 0.55 % IA/g | Muscle ([3]; 15 min p.i.): 1.78 ± 0.21 % IA/g | Salivary glands ([3]; 15 min p.i.): 2.11 ± 0.19 % IA/g | Spleen ([3]; 15 min p.i.): 2.85 ± 0.38 % IA/g | Stomach ([3]; 15 min p.i.): 1.70 ± 0.12 % IA/g | PC-3 flu Tumor ([3]; 15 min p.i.): 2.49 ± 0.45 % IA/g | PC-3 PIP Tumor ([3]; 15 min p.i.): 32.3 ± 3.54 % IA/g | Blood ([3]; 30 min p.i.): 3.05 ± 0.81 % IA/g | Bone ([3]; 30 min p.i.): 1.07 ± 0.27 % IA/g | Heart ([3]; 30 min p.i.): 1.32 ± 0.28 % IA/g | Intestines ([3]; 30 min p.i.): 1.13 ± 0.45 % IA/g | Kidneys ([3]; 30 min p.i.): 22.6 ± 1.78 % IA/g | Liver ([3]; 30 min p.i.): 0.90 ± 0.15 % IA/g | Lung ([3]; 30 min p.i.): 2.51 ± 0.44 % IA/g | Muscle ([3]; 30 min p.i.): 0.75 ± 0.20 % IA/g | Salivary glands ([3]; 30 min p.i.): 1.01 ± 0.27 % IA/g | Spleen ([3]; 30 min p.i.): 1.55 ± 0.05 % IA/g | Stomach ([3]; 30 min p.i.): 0.98 ± 0.35 % IA/g | PC-3 flu Tumor ([3]; 30 min p.i.): 1.22 ± 0.32 % IA/g | PC-3 PIP Tumor ([3]; 30 min p.i.): 47.0 ± 3.52 % IA/g | Bone ([3]; 2 h p.i.): 0.12 ± 0.07 % IA/g | Heart ([3]; 2 h p.i.): 0.06 ± 0.00 % IA/g | Intestines ([3]; 2 h p.i.): 0.14 ± 0.06 % IA/g | Kidneys ([3]; 2 h p.i.): 3.97 ± 0.56 % IA/g | Liver ([3]; 2 h p.i.): 0.13 ± 0.02 % IA/g | Lung ([3]; 2 h p.i.): 0.15 ± 0.03 % IA/g | Muscle ([3]; 2 h p.i.): 0.04 ± 0.02 % IA/g | Salivary glands ([3]; 2 h p.i.): 0.10 ± 0.03 % IA/g | Spleen ([3]; 2 h p.i.): 0.21 ± 0.03 % IA/g | Stomach ([3]; 2 h p.i.): 0.08 ± 0.02 % IA/g | PC-3 flu Tumor ([3]; 2 h p.i.): 0.13 ± 0.01 % IA/g | PC-3 PIP Tumor ([3]; 2 h p.i.): 45.8 ± 4.02 % IA/g | PC-3 flu Tumor ([3]; 4 h p.i.): 0.08 ± 0.01 % IA/g | PC-3 PIP Tumor ([3]; 4 h p.i.): 56.0 ± 8.0 % IA/g | Blood ([3]; 6 h p.i.): 0.02 ± 0.00 % IA/g | Bone ([3]; 6 h p.i.): 0.05 ± 0.01 % IA/g | Heart ([3]; 6 h p.i.): 0.03 ± 0.00 % IA/g | Intestines ([3]; 6 h p.i.): 0.03 ± 0.00 % IA/g | Kidneys ([3]; 6 h p.i.): 2.47 ± 0.28 % IA/g | Liver ([3]; 6 h p.i.): 0.09 ± 0.01 % IA/g | Lung ([3]; 6 h p.i.): 0.06 ± 0.02 % IA/g | Muscle ([3]; 6 h p.i.): 0.02 ± 0.01 % IA/g | Salivary glands ([3]; 6 h p.i.): 0.04 ± 0.00 % IA/g | Spleen ([3]; 6 h p.i.): 0.11 ± 0.01 % IA/g | Stomach ([3]; 6 h p.i.): 0.05 ± 0.01 % IA/g | PC-3 flu Tumor ([3]; 6 h p.i.): 0.06 ± 0.01 % IA/g | PC-3 PIP Tumor ([3]; 6 h p.i.): 55.4 ± 1.67 % IA/g | LogD values [4]: −4.18 ± 0.06
